Test results taken from paper PMC10133576, “Interactions between curcumin and human salt-induced kinase 3 elucidated from computational tools and experimental methods” (Frontiers in Pharmacology, 2023).

Molecular target: human salt-induced kinase 3 (SIK3) (Homo sapiens, UniProt Q9Y2K2)
Assay: KinaseProfiler radiometric protein kinase assay (Eurofins), ATP at Km
Type: biochemical

Chain of human salt-induced kinase 3 (SIK3) (Q9Y2K2 whole entry): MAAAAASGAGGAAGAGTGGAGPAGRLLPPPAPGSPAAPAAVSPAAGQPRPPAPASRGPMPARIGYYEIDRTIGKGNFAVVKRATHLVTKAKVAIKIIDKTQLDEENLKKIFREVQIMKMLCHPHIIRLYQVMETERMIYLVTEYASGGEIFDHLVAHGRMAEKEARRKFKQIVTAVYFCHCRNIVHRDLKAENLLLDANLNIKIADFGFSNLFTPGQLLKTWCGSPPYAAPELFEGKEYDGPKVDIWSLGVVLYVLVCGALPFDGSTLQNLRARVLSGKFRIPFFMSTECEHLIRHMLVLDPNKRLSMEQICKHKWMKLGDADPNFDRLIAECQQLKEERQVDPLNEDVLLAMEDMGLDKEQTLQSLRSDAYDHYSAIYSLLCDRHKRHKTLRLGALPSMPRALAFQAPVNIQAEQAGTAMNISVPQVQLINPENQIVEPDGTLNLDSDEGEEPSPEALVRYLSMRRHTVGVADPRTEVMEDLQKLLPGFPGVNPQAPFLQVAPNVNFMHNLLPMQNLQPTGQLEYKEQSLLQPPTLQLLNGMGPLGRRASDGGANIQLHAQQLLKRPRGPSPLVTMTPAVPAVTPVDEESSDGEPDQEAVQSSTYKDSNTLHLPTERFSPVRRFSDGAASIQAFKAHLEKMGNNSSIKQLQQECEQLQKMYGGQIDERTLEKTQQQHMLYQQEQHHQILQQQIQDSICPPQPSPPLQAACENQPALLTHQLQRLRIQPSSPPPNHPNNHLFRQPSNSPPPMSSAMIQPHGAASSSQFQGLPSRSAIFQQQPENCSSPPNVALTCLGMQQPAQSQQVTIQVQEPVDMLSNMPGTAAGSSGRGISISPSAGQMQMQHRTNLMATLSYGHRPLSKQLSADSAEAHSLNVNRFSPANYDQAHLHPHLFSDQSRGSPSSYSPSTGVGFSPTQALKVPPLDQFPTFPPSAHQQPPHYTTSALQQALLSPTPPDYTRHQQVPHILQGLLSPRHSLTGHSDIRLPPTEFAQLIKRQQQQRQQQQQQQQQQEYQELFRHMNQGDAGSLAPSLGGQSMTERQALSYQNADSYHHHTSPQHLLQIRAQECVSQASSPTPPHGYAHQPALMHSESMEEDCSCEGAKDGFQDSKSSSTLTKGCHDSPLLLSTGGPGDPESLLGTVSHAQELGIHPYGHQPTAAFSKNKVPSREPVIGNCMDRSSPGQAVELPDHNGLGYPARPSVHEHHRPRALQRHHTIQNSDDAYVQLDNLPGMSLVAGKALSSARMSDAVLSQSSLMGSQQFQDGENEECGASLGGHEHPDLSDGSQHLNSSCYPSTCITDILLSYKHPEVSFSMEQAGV

IC50: 131 nM
SMILES: COc1cc(/C=C/C(=O)CC(=O)/C=C/c2ccc(O)c(OC)c2)ccc1O [curcumin]
